Laboratory results reported in US3985747A, “Crystalline sesquihydrate of 7-[D-α-amino-α-(p-hydroxyphenyl)acetamido]-3-(1,2,3-triazol- 5-ylthiomethyl)-3-cephem-4-carboxylic acid” (priority 1974, dated 1976).
Converted amounts (≈) assume the structure as drawn. Where a name gives a salt, the structure may show the parent alone. Read-outs that look alike come from different tables or passages of the source. One block for each compound: values may come before it.

Assays:
D. pneumoniae A9585 = experiment: M.I.C. by Tube Dilution; assay type: cell-based; settings: Streptococcus pneumoniae, at 10^-3 dil'n, + 5% serum, 50% Nutrient Broth - 45% Antibiotic Assay Broth, overnight 37° C.
Str. Pyogenes A9604 = experiment: M.I.C. by Tube Dilution; assay type: cell-based; settings: Streptococcus pyogenes; at 10^-3 dil'n, + 5% serum; 50% Nutrient Broth - 45% Antibiotic Assay Broth; overnight 37° C.
S. aureus Smith A9537 = experiment: M.I.C. by Tube Dilution; assay type: cell-based; settings: Staphylococcus aureus, overnight 37° C.
S. aureus BX1633-2 A9606 = experiment: M.I.C. by Tube Dilution; assay type: cell-based; settings: Staphylococcus aureus, overnight 37° C.
Sal.enteritidis A9531 = experiment: M.I.C. by Tube Dilution; assay type: cell-based; settings: Salmonella enterica
E. coli A9675 = experiment: M.I.C. by Tube Dilution; assay type: cell-based; settings: Escherichia coli
in vivo [1] = experiment: in vivo; design: species or system mice; settings: mouse, im, 10 mg/kg
Experimental: Mouse Blood Levels after IM Administration of 10 mg./kg. Dose of BL-S640

[2] = Loss of bioactivity of the solid on storage at elevated temperatures; assay type: physicochemical; settings: for Loss of bioactivity (potency) on storage: 43800 min
Water solubility = assay type: physicochemical
physchem = assay type: physicochemical; settings: for Bioassay: solution pH 7.1, room temperature
From the text: The above components are shaken to form an amber solution having a pH = 7.1. The solution was allowed to stand at room temperature and periodically assayed to determine stability.

bacteria = experiment: Antibacterial testing in vitro and in vivo; settings: versus that reported in U.S. application Ser. No. 318,340
[3] = in vivo, po
in vivo [4] = settings: mouse, blood, po, 100 mg/kg
K. pneumoniae A9977 = experiment: M.I.C. by Tube Dilution; settings: Klebsiella pneumoniae
Pr. mirabilis A9900 = experiment: M.I.C. by Tube Dilution; settings: Proteus mirabilis
Pr. morganii A15153 = experiment: M.I.C. by Tube Dilution; settings: Morganella morganii
Ser. marcescens A20019 = experiment: M.I.C. by Tube Dilution; settings: Serratia marcescens
Ent. cloacae A9656 = experiment: M.I.C. by Tube Dilution; settings: Enterobacter cloacae
Ent. cloacae A9657 = experiment: M.I.C. by Tube Dilution; settings: Enterobacter cloacae
Ent. cloacae A9659 = experiment: M.I.C. by Tube Dilution; settings: Enterobacter cloacae
[5] = system: S. aureus(methicillin resist) A15097; experiment: microbe, parasite or virus in culture; settings: Staphylococcus aureus
E. coli Juhl A15119 = experiment: microbe, parasite or virus in culture; settings: Escherichia coli, JUHLA15119
K. pneumoniae A15130 = experiment: microbe, parasite or virus in culture; settings: Klebsiella pneumoniae
Ps. aeruginosa A9843A = experiment: microbe, parasite or virus in culture; settings: Pseudomonas aeruginosa
[6] = pH 7
[7] = Loss of bound water on drying; assay type: physicochemical; settings: very mild conditions (air drying 37° - 45° C., 24 hours)
Experimental: Upon recovery of the crystalline hydrate from the reaction mixture and cooling to room temperature, the hydrate is ordinarily isolated in the form of the crystalline dihydrate. […] […] […] Upon vacuum drying at 56° C. for 24 hours a crystalline hemihydrate is formed having 0.5 moles of bound water per mole of cephalosporin. All of the above-mentioned novel crystalline hydrates are included within the scope of the present invention.

[8] = SMITHA9537, at 10^-4 dilution, + 50% serum
[9] = at 10^-4 dilution, overnight 37° C., read-out: M.I.C.

Loss of bioactivity (potency) on storage ([2]; 56° C., 1 month): 37%
SMILES: N[C@@H](C(=O)NC1C(=O)N2C(C(=O)O)=C(CSc3cnn[nH]3)CSC12)c1ccc(O)cc1 (some centres unmarked) [amorphous monohydrate product]

Loss of bound water [7]: lose one-half molecule of bound water
SMILES: N[C@@H](C(=O)NC1C(=O)N2C(C(=O)O)=C(CSc3cnn[nH]3)CS[C@H]12)c1ccc(O)cc1.O.O (stereo partly drawn) [dihydrate, 7-[D-α-Amino-α-(p-hydroxyphenyl)-acetamido]-3-(1,2,3-triazol-5-ylthiomethyl)-3-cephem-4-carboxylic acid dihydrate]
Bio-assay (Bio-assay (biopotency)): 950 to 1000 µg/mg

Loss of bioactivity (potency) on storage ([2]; 56° C., 1 month): < 10%
degraded at 24 h ([2]; solid, 100° C., 24 hours): < 6%
degraded at 48 h ([2]; solid, 100° C., 48 hours): < 12%
solubility (Water solubility; 23° C., read-out: Water solubility): ~10000 µg/mL
SMILES: N[C@@H](C(=O)NC1C(=O)N2C(C(=O)O)=C(CSc3cnn[nH]3)CSC12)c1ccc(O)cc1 (stereo partly drawn) [propylene glycol solvate, 7-[D-α-amino-α-(p-hydroxyphenyl)acetamido]-3-(1,2,3-triazol-5-ylthiomethyl)-3-cephem-4-carboxylic acid propylene glycol solvate]
Bio-assay (Bio-assay (biopotency)): 750 to 790 µg/mg

Second part, the compound before the results:

SMILES: N[C@@H](C(=O)N[C@@H]1C(=O)N2C(C(=O)O)=C(CSc3c[nH]nn3)CS[C@H]12)c1ccc(O)cc1 [BL-S640 Sesquihydrate, 7-[D-α-amino-α-(p-hydroxyphenyl)acetamido]-3-(1,2,3-triazol-5-ylthiomethyl)-3-cephem-4-carboxylic acid sesquihydrate]
MIC (D. pneumoniae A9585): 0.02 µg/mL
MIC (Str. Pyogenes A9604): 0.02 µg/mL
MIC (S. aureus Smith A9537; [8]): 1 µg/mL
MIC (S. aureus Smith A9537; SMITHA9537, at 10^-4 dilution, read-out: M.I.C.): 0.3 µg/mL
MIC (S. aureus BX1633-2 A9606; BX16332A9606, at 10^-2 dil'n): 2 µg/mL
MIC (S. aureus BX1633-2 A9606; BX16332A9606, at 10^-3 dil'n, read-out: M.I.C.): 0.6 µg/mL
MIC (Sal.enteritidis A9531; [9]): 0.6 µg/mL
MIC (E. coli A9675; [9]): 4 µg/mL
concentration at 5 min (in vivo [1]): 15000 ng/mL
concentration at 0.5 h (in vivo [1]): 13500 ng/mL
concentration at 1 h (in vivo [1]): 9400 ng/mL
concentration at 1.5 h (in vivo [1]): 6800 ng/mL
degraded at 730 h ([2]; solid, 56° C., 1 month, read-out: Loss of bioactivity (potency) on storage): < 6%
solubility (Water solubility; 25° C., read-out: Solubility in water): ~10000 µg/mL
Bio-assay (Bio-assay (biopotency)): 924 µg/mg
degraded at 0.5 h (physchem; aqueous solution, pH 7.1): 0.8%
degraded at 1 h (physchem; aqueous solution, pH 7.1): 5.8%
degraded at 1.5 h (physchem; aqueous solution, pH 7.1): 8.3%
degraded at 2 h (physchem; aqueous solution, pH 7.1): 15.9%
degraded at […] (physchem; aqueous solution, pH 7.1): 0.8%
Bioassay (physchem; 15 minutes): 238 mg/mL
Bioassay (physchem; 30 minutes): 238 mg/mL
Bioassay (physchem; 60 minutes): 226 mg/mL
Bioassay (physchem; 90 minutes): 220 mg/mL
Bioassay (physchem; 2 hours): 202 mg/mL
Bioassay (physchem; time 0): 240 mg/mL
Potency and spectrum of activity (bacteria): substantially the same potency and spectrum of activity
Biological activity when suspended in water: does not lose biological activity
Blood levels [3]: effective blood levels
concentration at 0.5 h (in vivo [4]): 46000 ng/mL
concentration at 1 h (in vivo [4]): 42500 ng/mL
concentration at 2 h (in vivo [4]): 22500 ng/mL
concentration at 3.5 h (in vivo [4]): 11900 ng/mL
MIC (K. pneumoniae A9977): 1 µg/mL
MIC (Pr. mirabilis A9900): 0.5 µg/mL
MIC (Pr. morganii A15153): 16 µg/mL
MIC (Ser. marcescens A20019): 125 µg/mL
MIC (Ent. cloacae A9656): > 125 µg/mL
MIC (Ent. cloacae A9657): 1 µg/mL
MIC (Ent. cloacae A9659): 32 µg/mL
MIC [5]: 8 µg/mL
MIC (E. coli Juhl A15119): 2 µg/mL
MIC (K. pneumoniae A15130): 2 µg/mL
MIC (Ps. aeruginosa A9843A): > 125 µg/mL

SMILES: N[C@@H](C(=O)NC1C(=O)N2C(C(=O)O)=C(CSc3cnn[nH]3)CS[C@H]12)c1ccc(O)cc1 (stereo partly drawn) [BL-S640, 7-[D-α-Amino-α-(p-hydroxyphenyl)acetamido]-3-(1,2,3-triazol-5-ylthiomethyl)-3-cephem-4-carboxylic acid]
Degradation at alkaline pH [6]: degrades very rapidly by loss of the thiol moiety

SMILES: Cc1nnc(SCC2=C(C(=O)O)N3C(=O)[C@@H](NC(=O)Cn4cnnn4)[C@H]3SC2)s1 [Cefazolin, Na salt, sodium cefazolin, reference compound]
concentration at 5 min (in vivo [1]): 16100 ng/mL
concentration at 0.5 h (in vivo [1]): 11100 ng/mL
concentration at 1 h (in vivo [1]): 5700 ng/mL
concentration at 1.5 h (in vivo [1]): 2900 ng/mL

SMILES: CC1=C(C(=O)O)N2C(=O)[C@@H](NC(=O)[C@H](N)c3ccccc3)[C@H]2SC1 [Cephalexin, cephalexin, reference compound]
MIC (S. aureus Smith A9537; [8]): 2.5 µg/mL
MIC (S. aureus Smith A9537; SMITHA9537, at 10^-4 dilution): 0.6 µg/mL (≈ 1.73 µM)
MIC (S. aureus BX1633-2 A9606; BX16332A9606, at 10^-2 dil'n): 2 µg/mL (≈ 5.76 µM)
MIC (S. aureus BX1633-2 A9606; BX16332A9606, at 10^-3 dil'n): 1 µg/mL (≈ 2.88 µM)
MIC (Sal.enteritidis A9531): 2 µg/mL (≈ 5.76 µM)
MIC (E. coli A9675): 16 µg/mL (≈ 46.1 µM)
MIC (K. pneumoniae A9977): 2 µg/mL (≈ 5.76 µM)
MIC (Pr. mirabilis A9900): 2 µg/mL (≈ 5.76 µM)
MIC (Pr. morganii A15153): > 125 µg/mL
MIC (Ser. marcescens A20019): > 125 µg/mL
MIC (Ent. cloacae A9656): > 125 µg/mL
MIC (Ent. cloacae A9659): > 125 µg/mL
MIC [5]: 32 µg/mL (≈ 92.1 µM)
MIC (E. coli Juhl A15119): 4 µg/mL (≈ 11.5 µM)
MIC (K. pneumoniae A15130): 8 µg/mL (≈ 23 µM)
MIC (Ps. aeruginosa A9843A): > 125 µg/mL

SMILES: N[C@@H](C(=O)NC1C(=O)N2C(C(=O)O)=C(CSc3cnn[nH]3)CSC12)c1ccc(O)cc1 (stereo partly drawn) [Crystalline Methanol Solvate, 7-[D-α-amino-α-(p-hydroxyphenyl)acetamido]-3-(1,2,3-triazol-5-ylthiomethyl)-3-cephem-4-carboxylic acid methanol solvate]
Bio-assay (Bio-assay (biopotency)): 850 to 900 µg/mg
